Source: patent US20250154201A1, “PEPTIDE BINDING TO MESOTHELIN, AND USE THEREOF” (KYUNGPOOK NATIONAL UNIVERSITY INDUSTRY-ACADEMIC COOPERATION …, priority 2022, published 2025)

Assays:
[1] = test system: mesothelin-expressing pancreatic cancer cell lines AsPC-1, PANC-1, BxPC-3, and MiaPaCa-2; test: immunofluorescence binding of MSLN-pep to pancreatic cancer cell lines; assay type: cell-based, human; details: 10 μM and 25 μM MSLN-pep
Source text: Taken together, it was found via immunofluorescence analysis that MSLN-pep specifically binds to mesothelin.

[2] = test system: PANC-1 and AsPC-1 cell lines; test: analysis of migration (24-transwell); assay type: cell-based, human; details: 24 hours
Description: PANC-1 and AsPC-1 cell lines were cultured using DMEM and RPMI-1640 media with 10% FBS added respectively in the upper chamber of 24-transwell at a concentration of 2×10^4 cells per well. After 24 hours, all the media in the upper chamber of 24-transwells were removed and replaced with DMEM and RPMI-1640 media without addition of 10% FBS to inhibit migratability of cell lines, so as to be in a starvation state. After 24 hours, the experimental group was added with 10% FBS in the lower chamber, and the control was added with 0% FBS in the lower chamber to observe migratability. 3% ACN, 200 μM control peptide (Ctrl-pep), MSLN-pep 25. For 50, 100, and 200 μM groups, the media in the upper chamber of 24-Transwell were removed, each drug was treated by concentration, and 10% FBS was treated in the lower chamber. Each group was cultured at 37° C. for 24 hours, and then the cells were photographed (original magnification, ×100) by concentration of each peptide. Cells were stained with crystal violet (0.1%), and the ImageJ, a computer program, was used for quantitative evaluation.
(§1) After pancreatic cancer cell lines PANC-1 and AsPC-1 were cultured in 24-transwells, all cells were starved for 24 hours to inhibit cell growth, and then treatment was performed in divided groups of 10% FBS, 0% FBS, 3% ACN+10% FBS, 200 μM NSSSVDK+10% FBS, 25 μM MSLN-pep+10% FBS, 50 μM MSLN-pep+10% FBS, 100 μM MSLN-pep+10% FBS, and 200 μM MSLN-pep+10% FBS.

[3] = test system: PANC-1 and AsPC-1 cell lines; test: analysis of invasion (Matrigel-coated 24-transwell); assay type: cell-based, human; details: 24 hours
Description: PANC-1 and AsPC-1 cell lines were cultured using DMEM and RPMI-1640 media with 10% FBS added in 100 mm dish each at a concentration of 2×10^6 cells per well. After 24 hours, all media in 100 mm dishes were removed and replaced with DMEM and RPMI-1640 media without addition of 10% FBS to inhibit migratability of cell lines so as to be in a starvation state. After 24 hours, 300 μg/mL of Matrigel was coated on the upper chamber of 24-Transwell. Afterwards, PANC-1 and AsPC-1 cell lines were cultured in the upper chamber at a concentration of 2×10^4 cells in a 100 mm dish, 10% FBS was added to the lower chamber for the experimental group, and 0% FBS was added to the lower chamber for the control group to identify migratability. 3% ACN, 200 μM control peptide (Ctrl-pep), MSLN-pep 25. For 50, 100, and 200 μM groups, each cell line was cultured together in the upper chamber of the 24-Transwell, and 10% FBS was treated in the lower chamber. Each group was cultured at 37° C. for 24 hours, and then the cells were photographed (original magnification, ×100) for each concentration of peptides. Cells were stained with crystal violet (0.1%), and Image J, a computer program, was used for quantitative evaluation.
as §1

[4] = test system: AsPC-1 tumor; test: tumor homing of peptides in mice; assay type: in vivo, nude mice; details: TAMRA-labeled, intravenous, 6 hours circulation
Description: Pancreatic cancer cell line AsPC-1 cells (1×10^7 cells) were implanted under the skin of nude mice, left until the tumor size reaches about 100 mm^3, and then intravenously injected with 100 μl of 1 mM peptides labeled with a TAMRA fluorescence reagent, followed by circulation for 6 hours. Tumors and organs (liver, lung, and kidney) were separated and treated with paraformaldehyde for fixation and preparation of cryosections. The prepared cryosections were observed under a fluorescence microscope.
Pancreatic cancer cell line AsPC-1 cells (1×10^7 cells) were implanted under
the skin of nude mice, left until the tumor size reached about 100 mm^3, and then intravenously injected with MSLN-pep labeled with the TAMRA fluorescence reagent and control peptide (Ctrl-pep), followed by circulation for 6 hours. The tumor and control organs were separated, and cryosections were prepared, followed by observation under a fluorescence microscope.

[5] = biological target: T1, mesothelin (Homo sapiens, UniProt Q13421); test: co-localization of TAMRA-labeled MSLN-pep with mesothelin antibody (confocal microscopy); assay type: cell-based; design: endogenous in cells; details: AsPC-1, PANC-1, BxPC-3
Description: Pancreatic cancer cell lines AsPC-1, PANC-1, and BxPC-3 were cultured in a 4-well chamber and then treated with mesothelin antibodies to determine the location where mesothelin is expressed.
Target sequence in this assay (Q13421 with tags, fused parts or gaps limits assumed): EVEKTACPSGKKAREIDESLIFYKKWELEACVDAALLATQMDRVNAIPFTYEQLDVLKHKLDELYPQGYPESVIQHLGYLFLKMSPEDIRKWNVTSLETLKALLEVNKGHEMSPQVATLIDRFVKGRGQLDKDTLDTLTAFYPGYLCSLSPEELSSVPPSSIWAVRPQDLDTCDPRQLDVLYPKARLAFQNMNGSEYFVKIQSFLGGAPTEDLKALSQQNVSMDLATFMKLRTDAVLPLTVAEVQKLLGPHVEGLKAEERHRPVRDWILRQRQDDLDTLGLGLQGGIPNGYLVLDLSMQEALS

[6] = biological target: T1, mesothelin; test: phage-binding ELISA and phage immunofluorescence staining of phage clones; design: GFP; host or cells: HEK293T; details: phage clone, compared to other phage clones
Source text: A phage peptide library based on the T7 415-1b phage vector, represented by CX7C (C, cysteine; X, any amino acid residue) was designed according to the manufacturer's instructions (Novagen, Madison, WI). The phage library has approximately 1×10^9 plaque-forming unit (pfu). In other words, HEK-293T cells transfected with a mesothelin-expressing plasmid pCMV6-AC-GFP vector were dispensed in a 35 mm dish and cultured to meet a confluency of 60-70%. For transient transfection of HEK-293T cells, the cells were treated with Lipofectamine 3000 (Invitrogen) and cultured for 48 hours. First, phage libraries with 1×109 plaque-forming unit (pfu) were cultured in untransfected HEK-293T cells at 4° C. for 30 minutes. […] The eluate was used for titration, the remaining eluted phage clones were lysed in 10 ml of LB medium for amplification for the next cycle, and the process was repeated 5 times. […]
To screen peptides specifically binding to mesothelin, the present inventors first prepared HEK-293T cells transiently transfected with a mesothelin-GFP plasmid. […] As a result of observing mesothelin-GFP expression via immunofluorescence analysis, transfection was detected at each time point compared to untransfected HEK-293T cells (FIG. 2A). […]
Target sequence in this assay (Q13421 with tags, fused parts or gaps): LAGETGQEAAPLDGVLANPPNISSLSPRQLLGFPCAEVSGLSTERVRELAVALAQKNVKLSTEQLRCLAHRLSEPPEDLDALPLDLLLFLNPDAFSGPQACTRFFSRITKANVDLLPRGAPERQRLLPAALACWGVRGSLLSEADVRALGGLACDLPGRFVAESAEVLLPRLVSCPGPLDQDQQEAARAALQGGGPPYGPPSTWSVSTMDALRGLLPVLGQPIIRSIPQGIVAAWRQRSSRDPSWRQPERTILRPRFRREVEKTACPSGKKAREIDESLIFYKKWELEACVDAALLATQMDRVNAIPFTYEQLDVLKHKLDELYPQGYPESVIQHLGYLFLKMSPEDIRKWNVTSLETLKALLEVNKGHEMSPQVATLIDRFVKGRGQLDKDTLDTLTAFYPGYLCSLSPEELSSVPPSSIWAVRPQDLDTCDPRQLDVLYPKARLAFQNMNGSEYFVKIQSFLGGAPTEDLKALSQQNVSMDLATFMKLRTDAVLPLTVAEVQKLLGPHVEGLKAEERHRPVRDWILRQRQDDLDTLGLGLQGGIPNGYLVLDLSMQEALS

For `CC[C@H](C)[C@@H]1NC(=O)[C@H]([C@@H](C)O)NC(=O)[C@@H](N)CSSC[C@@H](C(=O)O)NC(=O)[C@H]([C@@H](C)O)NC(=O)[C@H](CC(C)C)NC(=O)[C@H](CO)NC(=O)[C@H](Cc2c[nH]c3ccccc23)NC(=O)[C@H](CC(C)C)NC1=O` [MSLN-pep], the “specific binding (immunofluorescence)” value [1] was “specific binding of MSLN-pep even at 10 μM with the further increase at 25 μM”, the “migratability compared to treatment of 10% FBS” value ([2]; 25 μM + 10% FBS) was “no difference in the migratability and invasiveness” and the migratability ([2]; 50, 100 and 200 μM + 10% FBS) was “suppressed with increasing concentrations of MSLN-pep”. The “invasiveness compared to treatment of 10% FBS” value ([3]; 25 μM + 10% FBS) was “no difference in the migratability and invasiveness”, the invasiveness ([3]; 50, 100 and 200 μM + 10% FBS) was “suppressed with increasing concentrations of MSLN-pep” and the “targeting to control organs (fluorescence microscopy of cryosections)” value ([4]; liver, lungs, kidneys) was “barely observed”. For the same compound, the “targeting to tumor tissue (fluorescence microscopy of cryosections)” value ([4]; tumor tissue) was “observed at a higher level compared to the control”, the “location of binding site relative to mesothelin expression” value [5] was “binding took place at the same spot where the mesothelin is expressed” and the “binding to mesothelin through phage ELISA and phage immunofluorescence staining” value [6] was “binds to mesothelin in high degree”.
